The conditions of data set [1]: dog, female and male, p.o.; cited from earlier work.
The conditions of data set [2]: cited from earlier work.
The conditions of data set [3]: rat, cited from earlier work.
A short description of data set [4]: Human Equivalent Dose (HED) of NOAEL. To be noted: for Human Equivalent Dose (HED): NOAEL (human), total dose / Human Equivalent Dose (HED): Neurotoxicology NOAEL (human), total dose: assuming a 60 kg human; for NOAEL: human, po.
For data set [5] the following is noted: p.o. in rat (SR(±)MDMA: with single housing); cited from earlier work.
The conditions of data set [6]: dog, p.o.; cited from earlier work.
The conditions of data set [7]: mouse; cited from earlier work.
The subject of data set [8] is serotonergic presynaptic markers. To be noted: primate study; cited from earlier work.
The conditions of data set [9]: cited from earlier work. The source holds these as a separate data set.
Data set [10] is described as follows: Subjective report: physiological and subjective effects after oral administration (Subject A). Type of data set: in vivo, human. On the procedure: To determine the physiological and subjective effects of the hydrochloride salt of R-MDMA (oral administration, 250 (±) 10 mg), supplemented with acetyl-L-carnitine (ALCAR), alpha lipoic acid (ALA), ascorbate to reduce or prevent neurotoxicity.
2.2 g of racemic MDMA was obtained and dissolved in methanol at a stock concentration of 10 mg/mL. A ChiralPak Ad-H column (150×4.6 mm, 5 μm particle size) was flushed with mobile phase solution on an Agilent 1260 machine with a variable UV-Vis detector and 10 uL of the final concentrated solution (1:100) was injected on a 35 min run cycle. Due to the preliminary nature of the testing, no further characterization was done. The laevo-rich form was the first eluted. It was collected and roto-evaporated into solid form and then dried over magnesium pellets. The product, when dried and washed thoroughly, was sent out for anonymized 1H-NMR testing to determine identity.
Vitals were taken hourly, and were taken four times between hours two and three. Heart rate rose for a short period to 115-125 from 85 resting.
MDMA enantiomers were recombined in a 9:1 ratio through crystallization and washing.

The conditions of data set [11]: cited from earlier work; for Fear behavior during the fear extinction session: during extinction training; for Conditioned fear when retention of extinction was assessed: the following day.
Another data set has as its target CYP2D6 (Homo sapiens, UniProt P10635). The note with it: cited from earlier work.
A short description of data set [12]: Maximum Recommended Starting Dose (MRSD) and doses tested in humans. To be noted: expected value.
A short description of data set [13]: No adverse effect level (NOAEL) in rat, p.o. To be noted: in vivo, po.
A further data set deals with CYP2C19 (Homo sapiens, UniProt P33261). To be noted: cited from earlier work.
CYP2C19, sequence (P33261 whole entry): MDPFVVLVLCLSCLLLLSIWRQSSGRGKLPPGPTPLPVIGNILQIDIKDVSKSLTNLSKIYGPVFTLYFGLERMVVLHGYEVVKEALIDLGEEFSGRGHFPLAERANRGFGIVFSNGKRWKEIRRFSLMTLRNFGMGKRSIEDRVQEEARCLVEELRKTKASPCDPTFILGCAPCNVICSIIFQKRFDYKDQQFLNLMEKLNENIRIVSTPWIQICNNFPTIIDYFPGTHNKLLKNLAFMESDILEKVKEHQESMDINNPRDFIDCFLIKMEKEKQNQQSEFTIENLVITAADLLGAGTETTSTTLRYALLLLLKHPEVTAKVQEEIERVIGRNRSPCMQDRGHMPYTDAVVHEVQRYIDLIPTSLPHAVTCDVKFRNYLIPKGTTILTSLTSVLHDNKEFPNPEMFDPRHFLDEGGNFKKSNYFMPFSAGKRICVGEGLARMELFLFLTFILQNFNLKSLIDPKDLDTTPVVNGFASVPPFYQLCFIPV
The mark [14] stands for this setting: 100 mg, healthy volunteers, brain imaging studies.

The source of these data is patent publication US20240335418A1, “SAFER PSYCHOACTIVE COMPOSITIONS” (Arcadia Medicine, Inc., priority 2021, published 2024).

Entries after “also recorded” stand apart in the source; their conditions may differ. Where two headings read alike, the source gives them in different places.

By NOAEL is commonly meant the highest dose or exposure tested at which no adverse effect was seen.

CYP2D6, sequence (P10635 whole entry): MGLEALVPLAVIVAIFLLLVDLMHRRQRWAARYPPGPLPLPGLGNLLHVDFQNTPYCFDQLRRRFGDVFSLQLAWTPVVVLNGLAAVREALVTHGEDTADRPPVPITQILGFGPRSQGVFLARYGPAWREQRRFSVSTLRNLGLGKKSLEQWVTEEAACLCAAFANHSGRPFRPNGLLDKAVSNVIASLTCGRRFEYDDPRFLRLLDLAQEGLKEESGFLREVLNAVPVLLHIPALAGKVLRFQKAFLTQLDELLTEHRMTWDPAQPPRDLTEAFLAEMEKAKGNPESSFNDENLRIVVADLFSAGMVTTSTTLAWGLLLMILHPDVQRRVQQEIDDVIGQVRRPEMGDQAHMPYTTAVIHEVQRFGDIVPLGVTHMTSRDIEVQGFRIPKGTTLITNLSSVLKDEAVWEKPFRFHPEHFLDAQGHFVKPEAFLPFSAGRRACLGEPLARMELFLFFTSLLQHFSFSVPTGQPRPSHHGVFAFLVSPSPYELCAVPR

Take `CNC(C)Cc1ccc2c(c1)OCO2` (stereo not drawn) [MDMA, 3,4-methylenedioxymethamphetamine]: in data set [1], the “Neurotoxicology NOAEL” value is 4 mg/kg/week p.o. For the same molecule, in data set [2] (setting [14]), the “Duration of subjective effects” value was “approximately 4.5 hours” and the “Time of peak subjective effects” value is 100 min. In data set [2] (patients with PTSD receiving one dose), the Duration of effects was 4 to 5 h. Moreover, in [2] (patients with PTSD, 100-125 mg), the “Onset of action after the initial dose” value is 45 to 75 min and the “Time of peak drug effects” value was 2 to 5 h. Further, in data set [2] (patients with PTSD, with the booster dose), the Duration of effects is 5 to 6 h. For the same molecule, in data set [2] (prior study (Harris et al.)), the “Decrease of subjective effects to baseline values” is 5 to 6 h, the “Onset of subjective effects” value was “approximately 45 mins” and the “Peak of subjective effects” value was 1.5 to 2 h. Moreover, in data set [3] (female, p.o.), the “Neurotoxicology NOAEL” value is listed as 25 mg/kg/week p.o1. Further, the “Neurotoxicology NOAEL” value in [3] (male, p.o.) was 20 mg/kg/week p.o1. In data set [4] (9:1 R:S MDMA: expected, p.o.), the “Human Equivalent Dose (HED): NOAEL (human)” value was 34 mg/kg → and the “Human Equivalent Dose (HED): NOAEL (human), total dose” value turned out to be 2080 mg. For the same molecule, in data set [4] (9:1 R:S MDMA: i.v.), the “Human Equivalent Dose (HED): Neurotoxicology NOAEL (human)” value is “NOAEL (human): 6 mg/kg” and the “Human Equivalent Dose (HED): Neurotoxicology NOAEL (human), total dose” value turned out to be 342.9 mg*. Further, the “No adverse effect level (NOAEL)” value in data set [5] is “NOAEL: 100 mg/kg”. Moreover, the “No adverse effect level (NOAEL)” value in data set [6] was “NOAEL: 15 mg/kg in”. In addition, in [7], the Critical period peak is 40 h and the “Critical period starts to open, time after the acute dose” value is listed as “about six”. In addition, in data set [8], the Serotonergic presynaptic markers result was “profound reductions in all three serotonergic presynaptic markers”. Besides, in [9] (doses ranging from 50-125 mg), the Elimination half-life is 7 to 9 h. For the same molecule, in data set [9] (humans, doses 100-125 mg), the “Time to peak plasma concentration” value was 2 to 3 h.
For `CN[C@H](C)Cc1ccc2c(c1)OCO2` [R-MDMA, (R)-1-(1,3-Benzodioxol-5-yl)-N-methylpropan-2-amine], the “Neurotoxicology NOAEL” value in data set [3] (i.v.) was 50 mg/kg i.v2. Also, the “Human Equivalent Dose (HED): NOAEL (human), total dose” value in data set [4] (9:1 R:S MDMA: expected, p.o.) is listed as “mg/kg → >4100”. Moreover, the “Human Equivalent Dose (HED): Neurotoxicology NOAEL (human), total dose” value in data set [4] (9:1 R:S MDMA: i.v.) is reported as 450 mg*. Besides, the NOAEL in [4] is greater than 68 mg/kg. Besides, the “No adverse effect level (NOAEL)” value in [5] is “NOAEL: >200 mg/kg”. Besides, in data set [10] (R-MDMA HCl 250 (±) 10 mg oral), the “Duration of the whole experience” value was “approximately 7 hours”; the “Peak of the experience, time after ingestion” value is given as “around two”; the Start of come-down is roughly 4 h; the “Start of noticeable effects off-baseline” value is on record as “around 40 minutes”. Besides, the Blood pressure entry in data set [10] (R-MDMA HCl 250 (±) 10 mg oral, monitor of low precision, result inconclusive) is recorded as “increased for a short period”. In data set [10] (single oral dose, Subject A), the Hyperthermia or hypothermia entry is on record as “No noticeable hyperthermia or hypothermia”, the Jaw clenching result is “No incidence of jaw clenching” and the “Stimulant effects compared with racemic MDMA” value is on record as “almost entirely absent; also recorded: reduction in stimulation”. Besides, in data set [10] (single oral dose, Subject A, R-MDMA HCl 250 (±) 10 mg with supplements (rise from 85 resting), 9:1 R:S MDMA 230-240 mg), the Heart rate is 115-125. In data set [11], the “Fear behavior during the fear extinction session” value is recorded as “did not reduce fear behavior” and the “Conditioned fear when retention of extinction was assessed” value is recorded as “significantly reduced conditioned fear”. In data set [9] (in vivo), the “AUC in comparison to S-MDMA” value is recorded as “increased AUC” and the “Half-life in comparison to S-MDMA” value was “longer half-life”.
Consider `CN[C@@H](C)Cc1ccc2c(c1)OCO2` [S-MDMA, (S)-1-(1,3-Benzodioxol-5-yl)-N-methylpropan-2-amine], for which the “Neurotoxicology NOAEL” value in data set [3] (i.v.) is given as 20 mg/kg i.v2,3. In addition, in data set [4] (9:1 R:S MDMA: expected, p.o.), the “Human Equivalent Dose (HED): NOAEL (human), total dose” value is “mg/kg → <2080”. Besides, the “Human Equivalent Dose (HED): Neurotoxicology NOAEL (human), total dose” value in data set [4] (9:1 R:S MDMA: i.v.) is recorded as 342.9 mg*. Further, the NOAEL in data set [4] is less than 34 mg/kg. Moreover, at CYP2D6, the “Affinity for CYP2D6 compared with the other enantiomer” value is given as “higher affinity”. Besides, the “Expected MSRD” value in data set [12] worked out at 150 mg. The same molecule showed an NOAEL in data set [13] of less than 100 mg/kg. For the same molecule, in data set [11], the “Fear behavior during the fear extinction session” value is reported as “reduced conditioned fear behavior” and the “Conditioned fear when retention of extinction was assessed” value was “a reduction thereof was not observed”. In addition, at CYP2C19, the “Metabolism by CYP2C19, enantiomer preference” value is on record as “preferentially metabolizes”.
